In publication PMC11599901, “Enhancing the solubility and antibacterial activity of novel molecular salts of enrofloxacin drug with isomeric pyridinedicarboxylic acids” (Scientific Reports, 2024):
In brackets after ≈: the same amount, converted by molar mass. Read-outs that look alike come from different tables or passages of the source.

Tests used:
[1] = tested on: Escherichia coli ATCC 25922; experiment: Broth microdilution antibacterial activity (MIC/MBC), CLSI M07; format: cell-based; details: 24 h at 37 °C; for MBC (minimal bactericidal concentration) / MIC (minimal inhibitory concentration): Mueller-Hinton medium
Method: (§1) The antibacterial activity of the enrofloxacin salts was determined against two Gram-positive strains (Staphylococcus aureus ATCC 6358, Streptococcus pyogenes ATCC 19615) and two Gram-negative bacteria (Escherichia coli ATCC 25922, Pseudomonas aeruginosa ATCC 15442). The determination was performed in accordance with Clinical and Laboratory Standards Institute (CLSI) standard […] for antimicrobial susceptibility testing of aerobic bacteria. The assessment was performed using the broth microdilution method with Mueller-Hinton medium. The tested samples were accompanied by biotic controls, i.e. without the addition of newly synthesized compounds, and abiotic controls, i.e. without the addition of microorganisms. All probes were incubated for 24 h at 37 °C. Microbial growth was measured using a microplate reader (Multiskan FC Microplate Photometer, ThermoFisher Scientific, Pudong, Shanghai, China) at λ = 630 nm. The follow were determined: the minimal inhibitory concentration (MIC), defined as the lowest concentration of a compound that prevents visible growth of bacteria, and minimal bactericidal concentration (MBC), defined as the lowest concentration of a substance that completely limits the viability of microorganisms.

[2] = tested on: Pseudomonas aeruginosa ATCC 15442; experiment: as above; format: cell-based; details: 24 h at 37 °C; for MBC (minimal bactericidal concentration) / MIC (minimal inhibitory concentration): Mueller-Hinton medium
Method: as §1

[3] = tested on: Staphylococcus aureus ATCC 6358; experiment: as above; format: cell-based; details: 24 h at 37 °C; for MBC (minimal bactericidal concentration) / MIC (minimal inhibitory concentration): Mueller-Hinton medium
Method: as §1

[4] = tested on: Streptococcus pyogenes ATCC 19615; experiment: as above; format: cell-based; details: 24 h at 37 °C; for MBC (minimal bactericidal concentration) / MIC (minimal inhibitory concentration): Mueller-Hinton medium
Method: as §1

[5] = Water solubility by the gravimetric method; format: physicochemical; details: 25 °C
Method: Temperature was maintained using a calibrated UltraUB 20 F with a DLK 25 circulating cooler (Lauda, Germany). A specific amount of the substance under investigation was carefully weighed using a precise analytical balance (Sartorius RC 210D). The mixture of salts and water was thoroughly mixed to ensure complete dissolution of the substance under investigation and left for 2 h to achieve equilibrium between the solution and the precipitate. Then, the solution was filtered, and the remaining precipitate was dried to a constant mass to remove the solvent. The difference between the initial mass of the substance m0 and the mass of the undissolved substance m1 allowed for the determination of the mass of the substance dissolved in the given mass of solvent.
Each measurement was taken in triplicate.

[6] = cited from earlier work

SMILES | MBC (minimal bactericidal concentration) [1] | MIC (minimal inhibitory concentration) [1] | MBC (minimal bactericidal concentration) [2] | MIC (minimal inhibitory concentration) [2] | MBC (minimal bactericidal concentration) [3] | MIC (minimal inhibitory concentration) [3] | MBC (minimal bactericidal concentration) [4] | MIC (minimal inhibitory concentration) [4] | also measured
CCN1CCN(c2cc3c(cc2F)c(=O)c(C(=O)O)cn3C2CC2)CC1.O=C(O)c1ccnc(C(=O)O)c1 [EFX·Py2,4DCA] | 0.031 µg/mL | 0.0078 µg/mL | 2 µg/mL | 1 µg/mL | 0.25 µg/mL | 0.25 µg/mL | 0.25 µg/mL | 0.125 µg/mL | –
O=C(O)c1ccc(C(=O)O)nc1 [Py2,5DCA, pyridine-2,5-dicarboxylic acid] | – | – | – | – | – | – | – | – | solubility in water [5]: 1237 µg/mL (≈ 7400 µM)
O=C(O)CC(O)C(=O)O (stereo not drawn) [malic acid] | – | – | – | – | – | – | – | – | solubility in water ([6]; ref 41): 16130 µg/mL (≈ 120000 µM)
CCN1CCN(c2cc3c(cc2F)c(=O)c(C(=O)O)cn3C2CC2)CC1 [EFX, 1-cyclopropyl-7-(4-ethyl-1-piperazinyl)-6-fluoro-1,4-dihydro-4-oxo-3-quinolinecarboxylic acid, reference compound] | – | – | – | – | – | – | – | – | MBC ([1]; ATCC25922, Mueller-Hinton medium, read-out: MBC (minimal bactericidal concentration)): 0.0078 µg/mL (≈ 0.0217 µM); MIC ([1]; ATCC25922, Mueller-Hinton medium, read-out: MIC (minimal inhibitory concentration)): 0.0078 µg/mL (≈ 0.0217 µM); MBC ([2]; ATCC15442, Mueller-Hinton medium, read-out: MBC (minimal bactericidal concentration)): 1 µg/mL (≈ 2.78 µM); MIC ([2]; ATCC15442, Mueller-Hinton medium, read-out: MIC (minimal inhibitory concentration)): 0.5 µg/mL (≈ 1.39 µM); MBC ([3]; ATCC6358, Mueller-Hinton medium, read-out: MBC (minimal bactericidal concentration)): 0.25 µg/mL (≈ 0.696 µM); MIC ([3]; ATCC6358, Mueller-Hinton medium, read-out: MIC (minimal inhibitory concentration)): 0.0625 µg/mL (≈ 0.174 µM); MBC ([4]; ATCC19615, Mueller-Hinton medium, read-out: MBC (minimal bactericidal concentration)): 0.125 µg/mL (≈ 0.348 µM); MIC ([4]; ATCC19615, Mueller-Hinton medium, read-out: MIC (minimal inhibitory concentration)): 0.0625 µg/mL (≈ 0.174 µM); solubility at 2 h ([5]; thermodynamic from solid): 176 µg/mL (≈ 490 µM); solubility in water ([6]; ref 34): 610 µg/mL (≈ 1700 µM); solubility in water ([6]; ref 41): 140 µg/mL (≈ 390 µM)
CCN1CCN(c2cc3c(cc2F)c(=O)c(C(=O)O)cn3C2CC2)CC1.O.O=C(O)c1ccc(C(=O)O)nc1 [EFX·Py2,5DCA·H2O] | 0.031 µg/mL | 0.0078 µg/mL | 2 µg/mL | 1 µg/mL | 0.25 µg/mL | 0.25 µg/mL | 0.25 µg/mL | 0.125 µg/mL | –
CCN1CCN(c2cc3c(cc2F)c(=O)c(C(=O)O)cn3C2CC2)CC1.O.O=C(O)c1cccc(C(=O)O)n1 [EFX·Py2,6DCA·H2O] | 0.015 µg/mL | 0.0078 µg/mL | 2 µg/mL | 1 µg/mL | 0.25 µg/mL | 0.25 µg/mL | 0.25 µg/mL | 0.125 µg/mL | –
CCN1CCN(c2cc3c(cc2F)c(=O)c(C(=O)O)cn3C2CC2)CC1.O=C(O)c1cccnc1C(=O)O [EFX·Py2,3DCA] | 0.031 µg/mL | 0.0078 µg/mL | 2 µg/mL | 1 µg/mL | 0.25 µg/mL | 0.25 µg/mL | 0.25 µg/mL | 0.125 µg/mL | –
